Test results: patent publication US4382958A, “Secondary amines and compositions for treatment of hypoglycaemia or obesity” (priority 1980, dated 1983)
Like-named read-outs stand apart in the source and are kept apart here.

Assays:
[1] = tested on: Female CFLP mice; test: Effect on energy expenditure and food intake of mice; type: in vivo; details: Mus musculus, % of mice dosed with water; for response vs control in vivo at 24.5 mg/kg: 24.5 mg/kg po; for response vs control in vivo at 18.5 mg/kg: 18.5 mg/kg po; for response vs control in vivo at 22.2 mg/kg: 22.2 mg/kg po
Method: Female CFLP mice each weighing approximately 24 g were given food and water ad lib before and during the experiment. The compounds were dissolved in water by addition of one mole of hydrochloric acid per mole of compound and these solutions were administered orally to each of 12 mice. A further 12 mice were dosed orally with water. The mice were placed in boxes through which air was drawn and the oxygen content of the air leaving the boxes was measured. The energy expenditure of the mice was calculated for 21 hours after dosing from the volume of air leaving the boxes and its oxygen content following the principles described by J. B. de V. Weir, J. Physiol. […] The food intake of the mice was measured over this same period of 21 hours. The results are expressed as a percentage of the mean food intake or rate of energy expenditure of the mice dosed with water.

[2] = tested on: Rat hearts; test: Cardiac activity: rat hearts perfused by the Langendorff procedure
Method: Rat hearts were perfused by the Langendorff procedure.
Hearts were dissected free within 30 seconds of death and reverse perfused via the aorta and coronary vessels with Krebs-Ringer bicarbonate solution (pH 7.4, 37° C.) gassed with 95% oxygen: 5% carbon dioxide at a flow rate between 8-12 cm^3 /minute. Responses were observed after injection of drug dissolved in isotonic saline into the perfusion media.
Results are expressed as a percentage of the maximum response due to salbutamol.

[3] = tested on: Female CFLP mice; test: Hypoglycaemic activity: blood glucose of fasted mice after subcutaneous glucose; type: in vivo; details: Mus musculus, 2 hour period after glucose, vs control mice given water, read-out: REDUCTION IN AREA UNDER BLOOD GLUCOSE CURVE (%); for inhibition in vivo at 1 µmol/kg: 1.0 μ mol/kg oral
Method: Female CFLP mice, weighing approximately 25 g, were fasted for 24 hours prior to the study. The compounds under study were administered orally as an aqueous solution to each of 8 mice. 30 minutes later a blood sample ([…]) was obtained from the tail for the analysis of blood glucose. Immediately after taking this blood sample, glucose (1 g/kg body weight) was administered subcutaneously to each mouse. 8 mice were given water as a control. Blood samples were then obtained from each mouse at 30 minute intervals for 120 minutes.
Compounds that produced a significant (P<0.05) reduction on blood glucose, compared with control mice given water, at any time interval, were considered active. The area under the blood glucose curve over the 2 hour period after the administration of the glucose was calculated for each compound and compared with the value for control animals.

[4] = tested on: genetically obese mice; test: Anti-obesity activity: carcass lipid of genetically obese mice after oral gavage daily for 28 days; type: in vivo; details: 12.2 mg/kg p.o. daily for 28 days, control 18.75
Method: The compound of Example 5 was administered by oral gavage in water or carboxymethyl-cellulose suspension to genetically obese mice daily for 28 days. At the end of the time the carcass composition was determined.

[5] = tested on: Platelet aggregation (response to collagen); test: Platelet aggregation inhibition activity: response to intravenous collagen in mice; type: in vivo; details: 1 μ mol/kg po; two hours before collagen 400 μg/kg i.v.
Method: Male CFLP mice (ca 20 g, n=8) were dosed orally with compound or vehicle (controls) after an overnight fast. Two hours later each mouse received an intravenous dose of collagen (400 μg/kg, pH 6-6.6). Exactly 30 sec. after injection of collagen, each mouse was placed in a chamber of CO2 until respiration ceased. […] Each concentration was expressed as a percent of that obtained in a tail blood sample taken immediately before injection of collagen.

[6] = tested on: rat ear; test: Topical anti-inflammatory activity: croton oil inflammation of the rat ear; type: in vivo; details: 6 hours, activity = significant (5% level) reduction in ear weight vs non-drug treated control
Method: The method used is based on that described by G. Tonelli et al (Endocrinology, 77, 625-634, 1965). An inflammation is induced in the rat ear by the application of 50 μl of a 1% solution of croton oil in tetrahydrofuran, test compounds being dissolved in the irritant vehicle. After 6 hours the inflammation is assessed by killing the animals and weighing the ears. Topical anti-inflammatory activity of a compound is generally considered to be shown when a significant (5% level) reduction in ear weight is seen compared to non-drug treated control.

[7] = 0-3h, read-out: MEAN ENERGY EXPENDITURE (%) 0-3h
[8] = 0-21h, read-out: MEAN ENERGY EXPENDITURE (%) 0-21h
[9] = over 21 hours, read-out: MEAN FOOD INTAKE (%)
[10] = 30 μg added to perfusate, percentage of the maximum response due to salbutamol, read-out: HEART RATE
[11] = 30 μg added to perfusate, percentage of the maximum response due to salbutamol, read-out: HEART TENSION

In the case of `CC(Cc1ccc(OCCCCCCO)cc1)NCC(O)c1cccc(C(F)(F)F)c1` (stereo not shown) [Example 5, N-[2-(4-(6-Hydroxyhexyloxy)phenyl)-1-methylethyl]-2-hydroxy-2-(3-trifluoromethylphenyl)-ethanamine], the response vs control in vivo at 24.5 mg/kg [1, 7] is reported as 213%, the response vs control in vivo at 24.5 mg/kg [1, 8] is reported as 129% and the response vs control in vivo at 24.5 mg/kg [1, 9] is reported as 103%. It also gave an Emax [2, 10] of 0%, an Emax [2, 11] of 0% and an inhibition in vivo at 1 µmol/kg [3] of 59%. For the same compound, the “g LIPID/MOUSE, TREATED” value [4] was 15.80 g LIPID/MOUSE and the “% INHIBITION OF RESPONSE TO COLLAGEN” value [5] was 47%.

`CC(Cc1ccc(OCCO)cc1)NCC(O)c1ccccc1F` (stereo not shown) [Example 1, N-[2-(4-(2-Hydroxyethoxy)phenyl)-1-methylethyl]-2-hydroxy-2-(2-fluorophenyl)ethanamine] was tested, and the response vs control in vivo at 18.5 mg/kg [1, 7] was 176%, the response vs control in vivo at 18.5 mg/kg [1, 8] was 128% and the response vs control in vivo at 18.5 mg/kg [1, 9] was 70%. The Emax [2, 10] was 63%, the Emax [2, 11] was 53% and the inhibition in vivo at 3 µmol/kg ([3]; 3.0 μ mol/kg oral) was 61%. For the same compound, the “ACTIVITY (topical anti-inflammatory)” value ([6]; 2 mg/rat ear topical) was “Active”.

With `CC(Cc1ccc(OCCCO)cc1)NCC(O)c1cccc(C(F)(F)F)c1` (stereo not shown) [Example 4, N-[2-(4-(3-Hydroxypropoxy)phenyl)-1-methylethyl]-2-hydroxy-2-(3-trifluoromethylphenyl)-ethanamine] the response vs control in vivo at 22.2 mg/kg [1, 7] was 179%, the response vs control in vivo at 22.2 mg/kg [1, 8] was 121% and the response vs control in vivo at 22.2 mg/kg [1, 9] was 75%. The Emax [2, 10] was 7%, the Emax ([2]; read-out: HEART TENSION) was 0% and the inhibition in vivo at 1 µmol/kg [3] was 31%. For the same compound, the “ACTIVITY (topical anti-inflammatory)” value ([6]; 0.5 mg/rat ear topical) was “Active”.
